# According to ChEMBL document CHEMBL5236661, “A new selective inhibitor for IMP-1 metallo-β-lactamase, 3Z,5E-octa-3,5-diene-1,3,4-tricarboxylic acid-3,4-anhydride” (Bioorg Med Chem, 2023):
# The source made the active and inactive calls. The rule behind the calls is not given here.
# What was measured:
# [1] = Inhibition of bacterial Metallo-beta-lactamase IMP-1 using nitrocefin as substrate pre-incubated for 15 mins followed by substrate addition by microplate reader; parameters: species or system Bacteria
# Pseudomonas aeruginosa [2] = assay: Antibacterial activity against Pseudomonas aeruginosa KB367 expressing IMP-1 assessed as inhibition of bacterial growth at 10 ug in presence of meropenem incubated overnight by paper disk method; type: functional; conditions: for inhibition zone (IZ): dose 10.0 µg; for zone of inhibition at 10 µg/disc: read-out: IZ
# Escherichia coli [3] = assay: Antibacterial activity against Escherichia coli KB366 expressing IMP-1 assessed as inhibition of bacterial growth at 3 ug in presence of meropenem incubated overnight by paper disk method; type: functional; conditions: read-out: IZ
# Escherichia coli [4] = assay: Antibacterial activity against Escherichia coli KB366 expressing IMP-1 assessed as inhibition of bacterial growth at 100 ug in absence of meropenem incubated overnight by paper disk method; type: functional, organism-based; conditions: dose 100.0 µg
# Escherichia coli [5] = assay: Antibacterial activity against Escherichia coli KB366 expressing IMP-1 assessed as inhibition of bacterial growth at 10 ug in presence of meropenem incubated overnight by paper disk method; type: functional; conditions: read-out: IZ
# Escherichia coli [6] = assay: Antibacterial activity against Escherichia coli KB366 expressing IMP-1 assessed as inhibition of bacterial growth at 30 ug in absence of meropenem incubated overnight by paper disk method; type: functional, organism-based; conditions: dose 30.0 µg
# Pseudomonas aeruginosa [7] = assay: Antibacterial activity against Pseudomonas aeruginosa KB367 expressing IMP-1 assessed as inhibition of bacterial growth at 3 ug in presence of meropenem incubated overnight by paper disk method; type: functional; conditions: for inhibition zone (IZ): dose 3.0 µg
# Pseudomonas aeruginosa [8] = assay: Antibacterial activity against Pseudomonas aeruginosa KB367 expressing IMP-1 assessed as inhibition of bacterial growth at 30 ug in absence of meropenem incubated overnight by paper disk method; type: functional, organism-based; conditions: dose 30.0 µg
# Escherichia coli [9] = assay: Antibacterial activity against Escherichia coli KB366 expressing IMP-1 assessed as inhibition of bacterial growth at 100 ug in presence of meropenem incubated overnight by paper disk method; type: functional; conditions: read-out: IZ
# Pseudomonas aeruginosa [10] = assay: Antibacterial activity against Pseudomonas aeruginosa KB367 expressing IMP-1 assessed as inhibition of bacterial growth at 0.1 ug in presence of meropenem incubated overnight by paper disk method; type: functional, organism-based; conditions: dose 0.1 µg
# Escherichia coli [11] = assay: Antibacterial activity against Escherichia coli KB366 expressing IMP-1 assessed as inhibition of bacterial growth at 3 ug in absence of meropenem incubated overnight by paper disk method; type: functional, organism-based; conditions: dose 3.0 µg
# Pseudomonas aeruginosa [12] = assay: Antibacterial activity against Pseudomonas aeruginosa KB367 expressing IMP-1 assessed as inhibition of bacterial growth at 0.3 ug in presence of meropenem incubated overnight by paper disk method; type: functional, organism-based; conditions: dose 0.3 µg
# Pseudomonas aeruginosa [13] = assay: Antibacterial activity against Pseudomonas aeruginosa KB367 expressing IMP-1 assessed as inhibition of bacterial growth at 0.3 ug in absence of meropenem incubated overnight by paper disk method; type: functional, organism-based; conditions: dose 0.3 µg
# Pseudomonas aeruginosa [14] = assay: Antibacterial activity against Pseudomonas aeruginosa KB367 expressing IMP-1 assessed as inhibition of bacterial growth at 30 ug in presence of meropenem incubated overnight by paper disk method; type: functional; conditions: for zone of inhibition at 30 µg/disc: read-out: IZ
# Pseudomonas aeruginosa [15] = assay: Antibacterial activity against Pseudomonas aeruginosa KB367 expressing IMP-1 assessed as inhibition of bacterial growth at 0.1 ug in absence of meropenem incubated overnight by paper disk method; type: functional, organism-based; conditions: dose 0.1 µg
# Pseudomonas aeruginosa [16] = assay: Antibacterial activity against Pseudomonas aeruginosa KB367 expressing IMP-1 assessed as inhibition of bacterial growth at 1 ug in absence of meropenem incubated overnight by paper disk method; type: functional, organism-based; conditions: dose 1.0 µg
# Pseudomonas aeruginosa [17] = assay: Antibacterial activity against Pseudomonas aeruginosa KB367 expressing IMP-1 assessed as inhibition of bacterial growth at 100 ug in absence of meropenem incubated overnight by paper disk method; type: functional, organism-based; conditions: dose 100.0 µg
# Pseudomonas aeruginosa [18] = assay: Antibacterial activity against Pseudomonas aeruginosa KB367 expressing IMP-1 assessed as inhibition of bacterial growth at 1 ug in presence of meropenem incubated overnight by paper disk method; type: functional; conditions: dose 1.0 µg
# Escherichia coli [19] = assay: Antibacterial activity against Escherichia coli KB366 expressing IMP-1 assessed as inhibition of bacterial growth at 10 ug in absence of meropenem incubated overnight by paper disk method; type: functional, organism-based; conditions: dose 10.0 µg
# Pseudomonas aeruginosa [20] = assay: Antibacterial activity against Pseudomonas aeruginosa KB367 expressing IMP-1 assessed as inhibition of bacterial growth at 3 ug in absence of meropenem incubated overnight by paper disk method; type: functional, organism-based; conditions: dose 3.0 µg
# Pseudomonas aeruginosa [21] = assay: Antibacterial activity against Pseudomonas aeruginosa KB367 expressing IMP-1 assessed as inhibition of bacterial growth at 100 ug in presence of meropenem incubated overnight by paper disk method; type: functional; conditions: for zone of inhibition at 100 µg/disc: read-out: IZ
# Escherichia coli [22] = assay: Antibacterial activity against Escherichia coli KB366 expressing IMP-1 assessed as inhibition of bacterial growth at 1 ug in absence of meropenem incubated overnight by paper disk method; type: functional, organism-based; conditions: dose 1.0 µg
# Pseudomonas aeruginosa [23] = assay: Antibacterial activity against Pseudomonas aeruginosa KB367 expressing IMP-1 assessed as inhibition of bacterial growth at 10 ug in absence of meropenem incubated overnight by paper disk method; type: functional, organism-based; conditions: dose 10.0 µg
# Escherichia coli [24] = assay: Antibacterial activity against Escherichia coli KB366 expressing IMP-1 assessed as inhibition of bacterial growth at 1 ug in presence of meropenem incubated overnight by paper disk method; type: functional; conditions: read-out: IZ
# Escherichia coli [25] = assay: Antibacterial activity against Escherichia coli KB366 expressing IMP-1 assessed as inhibition of bacterial growth at 30 ug in presence of meropenem incubated overnight by paper disk method; type: functional; conditions: read-out: IZ
# Escherichia coli [26] = assay: Antibacterial activity against Escherichia coli KB366 expressing IMP-1 assessed as inhibition of bacterial growth at 0.3 ug in absence of meropenem incubated overnight by paper disk method; type: functional, organism-based; conditions: dose 0.3 µg
# Escherichia coli [27] = assay: Antibacterial activity against Escherichia coli KB366 expressing IMP-1 assessed as inhibition of bacterial growth at 0.3 ug in presence of meropenem incubated overnight by paper disk method; type: functional; conditions: for zone of inhibition at 0.3 µg/disc: read-out: IZ
# Escherichia coli [28] = assay: Antibacterial activity against Escherichia coli KB366 expressing IMP-1 assessed as inhibition of bacterial growth at 0.1 ug in presence of meropenem incubated overnight by paper disk method; type: functional; conditions: for inhibition zone (IZ): dose 0.1 µg
# Escherichia coli [29] = assay: Antibacterial activity against Escherichia coli KB366 expressing IMP-1 assessed as inhibition of bacterial growth at 0.1 ug in absence of meropenem incubated overnight by paper disk method; type: functional, organism-based; conditions: dose 0.1 µg
# Escherichia coli [30] = assay: Antibacterial activity against Escherichia coli KB366 expressing IMP-1 assessed as inhibition of bacterial growth at 0.03 ug in presence of meropenem incubated overnight by paper disk method; type: functional
# Escherichia coli [31] = assay: Antibacterial activity against Escherichia coli KB366 expressing IMP-1 assessed as inhibition of bacterial growth at 0.03 ug in absence of meropenem incubated overnight by paper disk method; type: functional, organism-based; conditions: dose 0.03 µg
# Escherichia coli [32] = assay: Antibacterial activity against Escherichia coli KB366 expressing IMP-1 assessed as inhibition of bacterial growth at 0.01 ug in absence of meropenem incubated overnight by paper disk method; type: functional, organism-based; conditions: dose 0.01 µg
# Escherichia coli [33] = assay: Antibacterial activity against Escherichia coli KB366 expressing IMP-1 assessed as inhibition of bacterial growth at 0.01 ug in presence of meropenem incubated overnight by paper disk method; type: functional
SMILES,IC50 [1] [µg/mL],zone of inhibition at 3 µg/disc (Escherichia coli [3]) [mm],inhibition zone (IZ) (Escherichia coli [4]),zone of inhibition at 10 µg/disc (Escherichia coli [5]) [mm],inhibition zone (IZ) (Escherichia coli [6]),inhibition zone (IZ) (Pseudomonas aeruginosa [8]),inhibition zone (IZ) (Pseudomonas aeruginosa [10]),inhibition zone (IZ) (Escherichia coli [11]),inhibition zone (IZ) (Pseudomonas aeruginosa [12]),inhibition zone (IZ) (Pseudomonas aeruginosa [13]),inhibition zone (IZ) (Pseudomonas aeruginosa [15]),inhibition zone (IZ) (Pseudomonas aeruginosa [16]),inhibition zone (IZ) (Pseudomonas aeruginosa [17]),inhibition zone (IZ) (Pseudomonas aeruginosa [18]),inhibition zone (IZ) (Escherichia coli [19]),inhibition zone (IZ) (Pseudomonas aeruginosa [20]),inhibition zone (IZ) (Escherichia coli [22]),inhibition zone (IZ) (Pseudomonas aeruginosa [23]),zone of inhibition at 1 µg/disc (Escherichia coli [24]) [mm],inhibition zone (IZ) (Escherichia coli [26]),also measured
CC/C=C/C1=C(CCCOCc2ccccc2)C(=O)OC1=O,> 10,–,–,–,–,–,–,–,–,–,–,–,–,–,–,–,–,–,–,–,–
CC/C=C/C1=C(CCCOS(C)(=O)=O)C(=O)OC1=O,> 10,–,–,–,–,–,–,–,–,–,–,–,–,–,–,–,–,–,–,–,–
CC/C=C/C1=C(c2ccc(OCOC)c(OCOC)c2)C(=O)OC1=O,9.49,16,inactive,20,inactive,inactive,inactive,inactive,inactive,inactive,inactive,inactive,inactive,inactive,inactive,inactive,inactive,inactive,14,inactive,inhibition zone (IZ) (Pseudomonas aeruginosa [2]): inactive; inhibition zone (IZ) (Pseudomonas aeruginosa [7]): inactive; zone of inhibition at 100 µg/disc (Escherichia coli [9]): 27 mm; inhibition zone (IZ) (Pseudomonas aeruginosa [14]; dose 30.0 µg): inactive; inhibition zone (IZ) (Pseudomonas aeruginosa [21]; dose 100.0 µg): inactive; zone of inhibition at 30 µg/disc (Escherichia coli [25]): 23 mm; zone of inhibition at 0.3 µg/disc (Escherichia coli [27]): 11 mm
CC/C=C/C1=C(CCCOC(C)=O)C(=O)OC1=O,5.9,–,–,–,–,–,–,–,–,–,–,–,–,–,–,–,–,–,–,–,–
CC/C=C/C1=C(CCC(=O)OC)C(=O)OC1=O,4.3,23,inactive,26,inactive,inactive,inactive,inactive,inactive,inactive,inactive,inactive,inactive,inactive,inactive,inactive,inactive,inactive,19,inactive,inhibition zone (IZ) (Escherichia coli [28]): inactive; zone of inhibition at 10 µg/disc (Pseudomonas aeruginosa [2]): 11 mm; zone of inhibition at 3 µg/disc (Pseudomonas aeruginosa [7]; read-out: IZ): 9 mm; zone of inhibition at 100 µg/disc (Escherichia coli [9]): 33 mm; zone of inhibition at 30 µg/disc (Pseudomonas aeruginosa [14]): 16 mm; inhibition zone (IZ) (Escherichia coli [29]): inactive; zone of inhibition at 100 µg/disc (Pseudomonas aeruginosa [21]): 20 mm; zone of inhibition at 30 µg/disc (Escherichia coli [25]): 28 mm; inhibition zone (IZ) (Escherichia coli [27]; dose 0.3 µg): inactive
CCCCC1=C(c2ccc(O)c(O)c2)C(=O)OC1=O,1.46,20,inactive,22,inactive,inactive,inactive,inactive,inactive,inactive,inactive,inactive,inactive,inactive,inactive,inactive,inactive,inactive,17,inactive,inhibition zone (IZ) (Escherichia coli [28]): inactive; zone of inhibition at 10 µg/disc (Pseudomonas aeruginosa [2]): 9 mm; inhibition zone (IZ) (Pseudomonas aeruginosa [7]): inactive; zone of inhibition at 100 µg/disc (Escherichia coli [9]): 29 mm; inhibition zone (IZ) (Escherichia coli [30]; dose 0.03 µg): inactive; zone of inhibition at 30 µg/disc (Pseudomonas aeruginosa [14]): 14 mm; inhibition zone (IZ) (Escherichia coli [31]): inactive; inhibition zone (IZ) (Escherichia coli [32]): inactive; inhibition zone (IZ) (Escherichia coli [29]): inactive; zone of inhibition at 100 µg/disc (Pseudomonas aeruginosa [21]): 19 mm; inhibition zone (IZ) (Escherichia coli [33]; dose 0.01 µg): inactive; zone of inhibition at 30 µg/disc (Escherichia coli [25]): 25 mm; zone of inhibition at 0.3 µg/disc (Escherichia coli [27]): 13 mm
CC/C=C/C1=C(CCC(=O)O)C(=O)OC1=O,67.3,–,–,–,–,–,–,–,–,–,–,–,–,–,–,–,–,–,–,–,–
CC/C=C/C1=C(CCC)C(=O)OC1=O,3,18,–,24,inactive,inactive,inactive,inactive,inactive,inactive,inactive,inactive,inactive,inactive,inactive,inactive,inactive,inactive,17,inactive,zone of inhibition at 0.1 µg/disc (Escherichia coli [28]; read-out: IZ): 13 mm; inhibition zone (IZ) (Pseudomonas aeruginosa [2]): inactive; inhibition zone (IZ) (Pseudomonas aeruginosa [7]): inactive; zone of inhibition at 0.03 µg/disc (Escherichia coli [30]; read-out: IZ): 9 mm; zone of inhibition at 30 µg/disc (Pseudomonas aeruginosa [14]): 10 mm; inhibition zone (IZ) (Escherichia coli [31]): inactive; inhibition zone (IZ) (Escherichia coli [32]): inactive; inhibition zone (IZ) (Escherichia coli [29]): inactive; zone of inhibition at 0.01 µg/disc (Escherichia coli [33]; read-out: IZ): 9 mm; zone of inhibition at 0.3 µg/disc (Escherichia coli [27]): 15 mm
